Like-named read-outs stand apart in the source and are kept apart here.
Tested on: U2OS_Bim cells
Assay: Apoptosis inhibition assay (Bim-induced apoptosis, cell viability by ATP level)
Assay type: cell-based
Conditions: U2OS_Bim cells, numbering of Tables 4a/4b, read-out: EC50
Procedure, shortened: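 Apoptosis was triggered by doxycycline (0.1 μg/mL) induction of Bim, one hour after compound addition to U2OS_Bim cells. Survival was measured after 24 h from cellular ATP (CellTiter-Glo), relative to DMSO, with zVAD at 20 μM as rescue control. Data are duplicate means, some estimated from preliminary results.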

[1] = estimated (*Est.) / preliminary results
[2] = estimated based on preliminary results

| SMILES | EC50 (means of duplicates) [µM] | further results |
| --- | --- | --- |
| CCCOc1cccc(Cn2cc(-c3cc(C(F)(F)F)nc(S(C)(=O)=O)n3)ccc2=O)c1 [Compound 113, 5-(2-(methylsulfonyl)-6-(trifluoromethyl)pyrimidin-4-yl)-1-(3-propoxybenzyl)pyridin-2 (1H)-one] | 0.001 to 1 |  |
| COc1ccc(Cn2cc(-c3cc(C)nc(S(=O)(=O)CCC(C)=O)n3)cc(F)c2=O)cc1F [Compound 303, 3-fluoro-1-(3-fluoro-4-methoxybenzyl)-5-(6-methyl-2-((3-oxobutyl)sulfonyl)pyrimidin-4-yl)pyridin-2 (1H)-one] | < 100 |  |
| Cc1cc(-c2cc(F)c(=O)n(Cc3ccc4c(c3)OCO4)c2)nc(S(=O)(=O)CCCN(c2ccccc2)C2CC2)n1 [Compound 378] |  | EC50 [1]: 0.001 to 1 µM |
| O=S(=O)(CCC(OCc1ccccc1)c1ccccc1)c1nc(-c2cccs2)cc(C(F)(F)F)n1 (centres unmarked) [Compound 291, 2-(3-(benzyloxy)-3-phenylpropylsulfonyl)-4-(thiophen-2-yl)-6-(trifluoromethyl)pyrimidine] | 1 to 10 |  |
| COc1ccn(Cn2cc(-c3cc(C(F)(F)F)nc([S+](C)[O-])n3)ccc2=O)c1 (centres unmarked) [Compound 261] |  | EC50 [2]: < 10 µM |
| C#CCOc1cc(Cn2cc(-c3cc(C)nc(S(=O)(=O)CCC(OCc4ccccc4F)c4ccccc4)n3)cc(F)c2=O)ccc1OC (centres unmarked) [Compound 332, 3-fluoro-5-(2-((3-((2-fluorobenzyl)oxy)-3-phenylpropyl)sulfonyl)-6-methylpyrimidin-4-yl)-1-(4-methoxy-3-(prop-2-yn-1-yloxy)benzyl)pyridin-2 (1H)-one] | 0.001 to 1 |  |
| COc1ccc(Cn2cc(-c3cc(C(=O)c4ccccc4)nc(S(C)(=O)=O)n3)ccc2=O)cc1OC [Compound 271, 5-(6-benzoyl-2-(methylsulfonyl)pyrimidin-4-yl)-1-(3,4-dimethoxybenzyl)pyridin-2 (1H)-one] |  | EC50 [2]: < 10 µM |
| CS(=O)(=O)c1nc(-c2cccs2)cc(-n2ccccc2=O)n1 [Compound 39, 1-(2-(methylsulfonyl)-6-(thiophen-2-yl)pyrimidin-4-yl)pyridine-2 (1H)-one] | < 100 |  |
| Cc1cc(-c2cc(F)c(=O)n(Cc3ccc4c(c3)OCO4)c2)nc(S(=O)(=O)CCC(OCc2cccs2)c2ccccc2)n1 (centres unmarked) [Compound 405] |  | EC50 [1]: 0.001 to 1 µM |
| Cc1cc(-c2cc(F)c(=O)n(Cc3ccc4c(c3)OCO4)c2)nc(S(=O)(=O)CCCN2C(=O)Cc3ccccc32)n1 [Compound 362] |  | EC50 [1]: 0.001 to 1 µM |
| COc1ccc(Cn2cc(-c3cc(C(F)F)nc(S(=O)(=O)CCC(OCc4ccccc4F)c4ccccc4)n3)ccc2=O)cc1F (centres unmarked) [Compound 284, 5-(6-(difluoromethyl)-2-(3-(2-fluorobenzyloxy)-3-phenylpropylsulfonyl)pyrimidin-4-yl)-1-(3-fluoro-4-methoxybenzyl)pyridin-2 (1H)-one] | 0.001 to 1 |  |
| COc1ccc(Cn2cc(-c3cc(C(F)(F)F)nc([S+]([O-])Cc4cccnc4)n3)ccc2=O)cc1OC (centres unmarked) [Compound 192] |  | EC50 [2]: < 10 µM |
| Cc1cc(-c2cnc(OCc3ccc4c(cnn4C)c3)c(F)c2)nc(S(=O)(=O)CCC(OCc2ccccc2F)c2ccccc2)n1 (centres unmarked) [Compound 328, 5-((3-fluoro-5-(2-(3-(2-fluorobenzyloxy)-3-phenylpropylsulfonyl)-6-methylpyrimidin-4-yl)pyridin-2-yloxy)methyl)-1-methyl-1H-indazole] | < 100 |  |
| COc1cccc(Cn2cc(-c3cc(C(F)(F)F)nc(S(C)(=O)=O)n3)ccc2=O)c1 [Compound 109, 1-(3-methoxybenzyl)-5-(2-(methylsulfonyl)-6-(trifluoromethyl)pyrimidin-4-yl)pyridin-2 (1H)-one] | 0.001 to 1 |  |
| COc1ccc(Cn2cc(-c3cc(-c4cccs4)nc([S+]([O-])CCC(OCc4ccccc4)c4ccccc4)n3)ccc2=O)cc1OC (centres unmarked) [Compound 299, 5-(2-((3-(benzyloxy)-3-phenylpropyl)sulfinyl)-6-(thiophen-2-yl)pyrimidin-4-yl)-1-(3,4-dimethoxybenzyl)pyridin-2 (1H)-one] | < 100 |  |
| COc1ccc(Cn2cc(-c3cc(C(F)(F)F)nc(S(=O)(=O)Cn4ncnn4)n3)ccc2=O)cc1OC [Compound 195] |  | EC50 [2]: < 10 µM |
| Cc1cc(-c2cc(F)c(=O)n(Cc3ccc4c(c3)OCO4)c2)nc(S(=O)(=O)CCC(OCC2CCCC2)c2ccccc2)n1 (centres unmarked) [Compound 412] |  | EC50 [1]: 0.001 to 1 µM |
| Cc1cc(-c2cc(F)c(=O)n(Cc3ccc4c(c3)OCN4C)c2)nc(S(=O)(=O)CCC(OCc2ccccc2F)c2ccccc2)n1 (centres unmarked) [Compound 353] |  | EC50 [1]: 0.001 to 1 µM |
| COc1ccc(Cn2cc(-c3cc(C(F)F)nc(S(=O)(=O)c4cccc(NC(C)=O)c4)n3)ccc2=O)cc1OC [Compound 182, N-(3-((4-(difluoromethyl)-6-(1-(3,4-dimethoxybenzyl)-6-oxo-1,6-dihydropyridin-3-yl)pyrimidin-2-yl)sulfonyl)phenyl)acetamide] | 0.001 to 1 |  |
| CS(=O)(=O)c1nc(-c2cc[nH]c2)cc(C(F)(F)F)n1 [Compound 87, 2-(methylsulfonyl)-4-(1H-pyrrol-3-yl)-6-(trifluoromethyl)pyrimidine] | < 100 |  |
| COC(=O)c1ccc(-c2cc(C(F)(F)F)nc(S(C)(=O)=O)n2)cc1 [Compound 61, methyl 4-(2-(methylsulfonyl)-6-(trifluoromethyl)pyrimidin-4-yl)benzoate] | < 100 |  |

| SMILES | EC50 (means of duplicates) [µM] | further results |
| --- | --- | --- |
| CS(=O)(=O)c1nc(-c2ccc(=O)n(Cc3ccc4[nH]cnc4c3)c2)cc(C(F)(F)F)n1 [Compound 228] |  | EC50 [2]: < 10 µM |
| COc1ccc(Cn2cc(-c3cc(C(F)F)nc(S(=O)(=O)CCC(OCc4ccccc4)c4ccccc4)n3)ccc2=O)cc1OC (centres unmarked) [Compound 278, 5-(2-((3-(benzyloxy)-3-phenylpropyl)sulfonyl)-6-(difluoromethyl)pyrimidin-4-yl)-1-(3,4-dimethoxybenzyl)pyridin-2 (1H)-one] | 0.001 to 1 |  |
| C[S+]([O-])c1nc(-c2ccc(=O)n(Cc3ccc(Cl)cc3F)c2)cc(C(F)(F)F)n1 (centres unmarked) [Compound 125, 1-(4-chloro-2-fluorobenzyl)-5-(2-(methylsulfinyl)-6-(trifluoromethyl)pyrimidin-4-yl)pyridin-2 (1H)-one] | 1 to 10 |  |
| COc1ccc(Cn2cc(-c3cc(C(F)F)nc(S(=O)(=O)CCCS(=O)(=O)c4nc(-c5ccc(=O)n(Cc6ccc(OC)c(OC)c6)c5)cc(C(F)F)n4)n3)ccc2=O)cc1OC [Compound 186, 5,5′-(2,2′-(propane-1,3-diyldisulfonyl)bis(6-(difluoromethyl)pyrimidine-4,2-diyl))bis(1-(3,4-dimethoxybenzyl)pyridin-2 (1H)-one)] | 0.001 to 1 |  |
| Cc1cc(-c2cc(F)c(=O)n(Cc3ccc4c(c3)OCO4)c2)nc(S(=O)(=O)CCC(OCc2ccccc2F)c2cccnc2)n1 (centres unmarked) [Compound 384] |  | EC50 [1]: 0.001 to 1 µM |
| C[S+]([O-])c1nc(-c2ccc(=O)n(Cc3ccc4c(c3)NCCO4)c2)cc(C(F)(F)F)n1 (centres unmarked) [Compound 243] |  | EC50 [2]: < 10 µM |
| Cc1cc(-c2cc(F)c(=O)n(Cc3ccc4c(c3)OCO4)c2)nc(S(=O)(=O)CCC(OCc2cnco2)c2ccccc2)n1 (centres unmarked) [Compound 408] |  | EC50 [1]: 0.001 to 1 µM |
| CS(=O)(=O)c1nc(-n2cccn2)cc(C(F)(F)F)n1 [Compound 83, 2-(methylsulfonyl)-4-(1H-pyrazol-1-yl)-6-(trifluoromethyl)pyrimidine] | 1 to 10 |  |
| Cc1cc(-c2cc(F)c(=O)n(Cc3ccc4c(c3)CCN4C)c2)nc(S(=O)(=O)CCC(OCc2ccccc2F)c2ccccc2)n1 (centres unmarked) [Compound 352] |  | EC50 [1]: 0.001 to 1 µM |
| Cc1cc(-c2cc(F)c(=O)n(CC3CCNCC3)c2)nc(S(=O)(=O)CCC(OCc2ccc(F)cc2F)c2ccccc2)n1 (centres unmarked) [Compound 312, 5-(2-(3-(2,4-difluorobenzyloxy)-3-phenylpropylsulfonyl)-6-methylpyrimidin-4-yl)-3-fluoro-1-(piperidin-4-ylmethyl)pyridin-2 (1H)-one] | < 100 |  |
| COc1ccc(Cn2cc(-c3cc(C(F)F)nc(S(=O)(=O)CCC(O)c4ccccc4)n3)ccc2=O)cc1F (centres unmarked) [Compound 287, 5-(6-(difluoromethyl)-2-((3-hydroxy-3-phenylpropyl)sulfonyl)pyrimidin-4-yl)-1-(3-fluoro-4-methoxybenzyl)pyridin-2 (1H)-one] | 0.001 to 1 |  |
| CNc1cc(Cn2cc(-c3cc(C(F)(F)F)nc(S(C)(=O)=O)n3)ccc2=O)ccc1OC [Compound 238] |  | EC50 [2]: < 10 µM |
| COc1ccc(Cn2cc(-c3cc(C(F)F)nc([S+](C)[O-])n3)ccc2=O)cc1F (centres unmarked) [Compound 168, 5-(6-(difluoromethyl)-2-(methylsulfinyl)pyrimidin-4-yl)-1-(3-fluoro-4-methoxybenzyl)pyridin-2 (1H)-one] | 0.001 to 1 |  |
| COc1cc(Cn2cc(-c3cc(C(F)(F)F)nc(S(C)(=O)=O)n3)ccc2=O)ccn1 [Compound 135, 1-((2-methoxypyridin-4-yl)methyl)-5-(2-(methylsulfonyl)-6-(trifluoromethyl)pyrimidin-4-yl)pyridin-2 (1H)-one] | 0.001 to 1 |  |
| COc1ccc(Cn2cc(-c3cc(C(F)(F)F)nc(S(=O)(=O)CCC(=O)N4CCCCC4)n3)ccc2=O)cc1OC [Compound 153, 1-(3,4-dimethoxybenzyl)-5-(2-((3-oxo-3-(piperidin-1-yl)propyl)sulfonyl)-6-(trifluoromethyl)pyrimidin-4-yl)pyridin-2 (1H)-one] | 0.001 to 1 |  |
| CS(=O)(=O)c1nc(-c2ccc(=O)n(Cc3ccc4c(c3)NCCN4)c2)cc(C(F)(F)F)n1 [Compound 234] |  | EC50 [2]: < 10 µM |
| Cc1cc(-c2cc(F)c(=O)n(Cc3ccc4c(c3)OCO4)c2)nc(S(=O)(=O)CCC(OCc2ccccc2F)c2ccc3ncoc3c2)n1 (centres unmarked) [Compound 395] |  | EC50 [1]: 0.001 to 1 µM |
| C#CCOc1cccc(-c2cc(C(F)(F)F)nc([S+](C)[O-])n2)c1 (centres unmarked) [Compound 72, 2-(methylsulfinyl)-4-(3-(prop-2-yn-1-yloxy)phenyl)-6-(trifluoromethyl) pyrimidine] | 1 to 10 |  |
| COc1ccc(Cn2cc(-c3cc(-c4ccco4)nc(S(C)(=O)=O)n3)ccc2=O)cc1OC [Compound 206] |  | EC50 [2]: < 10 µM |
| O=S(=O)(CCC(Cl)c1ccccc1)c1nc(-c2cccs2)cc(C(F)(F)F)n1 (centres unmarked) [Compound 292, 2-((3-chloro-3-phenylpropyl)sulfonyl)-4-(thiophen-2-yl)-6-(trifluoromethyl)pyrimidine] | 1 to 10 |  |

— patent US11725000B2, “Apoptosis inhibitors” (National Institute of Biological Sciences, Beijing, priority 2017, dated 2023)
